Source: PMC8624523, “Novel GPR120 Agonists with Improved Pharmacokinetic Profiles for the Treatment of Type 2 Diabetes” (Molecules, 2021)
Like-named read-outs stand apart in the source and are kept apart here.

Tests used:
[1] = molecular target: T1, human GPR120 (Homo sapiens, UniProt Q5NUL3); test: Ca2+ influx assay in CHO cells stably expressing human GPR120; format: cell-based; conditions: CHO cells expressing human GPR120, Ca2+ signal, mean of three determinations
T1 construct: expressed in transfected cells
T1 sequence (Q5NUL3 1-361): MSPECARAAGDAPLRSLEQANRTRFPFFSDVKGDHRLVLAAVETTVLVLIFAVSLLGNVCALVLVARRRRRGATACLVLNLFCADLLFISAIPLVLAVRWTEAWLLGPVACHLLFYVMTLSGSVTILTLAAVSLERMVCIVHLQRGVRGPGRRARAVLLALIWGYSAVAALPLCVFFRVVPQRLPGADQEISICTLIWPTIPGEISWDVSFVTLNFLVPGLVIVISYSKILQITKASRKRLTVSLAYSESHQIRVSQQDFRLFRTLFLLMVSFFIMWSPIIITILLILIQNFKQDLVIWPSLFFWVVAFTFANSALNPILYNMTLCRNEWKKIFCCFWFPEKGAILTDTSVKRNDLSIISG
Description: Chinese hamster ovary (CHO) cells stably expressing human GPR120 were suspended in growth media at a concentration of 1 × 10^6 per mL. […] The cell plate was removed from the incubator, the medium was gently discarded, and the wells were washed with 100 μL of Hank’s balanced salt solution (HBSS) per well. The cells were then incubated in HBSS containing fluorescent calcium indicator Fluo-4 AM (2.5 μg/mL) and probenecid (2.5 mmol/L) for 90 min. […] The test compounds at various concentrations were added to the cells, and intracellular Ca^2+ concentrations were measured using FlexStation3 Molecular Devices. The GPR120 agonistic activities of the test compounds were expressed as A/B (increase in the intracellular Ca^2+ concentration (A) in the test compound-treated cells and (B) in vehicle-treated cells). The EC50 value of each compound was calculated using Prism software (version 5.0; GraphPad Software, San Diego, CA, USA).

[2] = molecular target: T2, hGPR40 (Homo sapiens, UniProt O14842); set-up: method as in PMID 22519963, PMID 29100735, PMID 28642104, PMID 28947942, PMID 28374589; conditions: cited from earlier work
T2 construct: expressed in transfected cells; host or cells: CHO cells

[3] = test system: hGPR120; set-up: method as in PMID 22519963, PMID 29100735, PMID 28642104, PMID 28947942, PMID 28374589; conditions: Figure 1, literature values; cited from earlier work
[4] = molecular target: T2, hGPR40; test: Calcium influx assay on hGPR40-expressing CHO cells; format: cell-based; conditions: for Selectivity: GPR40 EC50 over GPR120 EC50; for EC50: hGPR40-expressing CHO cells, calcium influx, mean of three determinations, read-out: GPR40 (EC50)
[5] = Pharmacokinetic analysis in C57BL/6 mice after gavage administration; format: in vivo; conditions: male, mouse, plasma, po, 10 mg/kg gavage, 0.5% MC; for AUC / Cmax / half-life: mean ± SEM of four mice
Description: Plasma was collected with a pipette and the proteins in the plasma were precipitated with two volumes of acetonitrile containing an internal standard. This was followed by centrifugation at 15.680 g for 10 min after vortexing for 5 min. The supernatant was diluted with acetonitrile and 10 μL of supernatant was analyzed by Waters LC-PDA-MS/MS to determine plasma drug levels. Pharmacokinetic parameters were determined using the mean data from four mice at each time point. Statistical analysis of the data was performed using the DAS 2.1.1 statistical software program (BioVoice, Shanghai, China).

[6] = test system: DIO mice; test: Anti-hyperglycemic effects (oGTT) in diet-induced obese (DIO) mice; format: in vivo, C57BL/6 mice; conditions: fasted DIO mice, 20 mg/kg gavage 30 min before oral glucose 2 g/kg
From the text: After 1 week of adaptation, male C57BL/6 mice weighing 18–22 g, were fed a high-fat diet (45% calories from fat, from Mediscience Ltd., Yangzhou, China) ad libitum for an additional 8 weeks to induce insulin resistance. […] Blood samples were collected and measured in accordance with the oral glucose tolerance test in normal ICR mice.

[7] = test system: normal ICR mice; test: Oral glucose tolerance test in normal ICR mice; format: in vivo; conditions: fasted ICR mice
Description: Male ICR starved overnight (12 h) were weighed and randomly divided into six groups (eight mice per group). […] Blood samples were collected via the tail tip before drug administration (-30 min), before glucose loading (time 0), and 15, 30, 60, and 120 min after glucose loading. Blood glucose levels were measured using blood glucose test strips (Sannuo GA-3 type, Changsha, China).

T2 sequence (O14842 whole entry): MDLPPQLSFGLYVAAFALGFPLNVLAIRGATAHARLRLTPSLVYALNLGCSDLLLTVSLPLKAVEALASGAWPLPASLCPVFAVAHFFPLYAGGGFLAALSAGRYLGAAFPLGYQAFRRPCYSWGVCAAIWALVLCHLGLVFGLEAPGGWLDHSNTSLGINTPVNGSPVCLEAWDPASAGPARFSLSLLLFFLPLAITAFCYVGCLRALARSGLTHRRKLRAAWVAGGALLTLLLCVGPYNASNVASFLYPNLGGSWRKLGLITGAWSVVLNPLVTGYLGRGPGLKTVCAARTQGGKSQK

Row | SMILES | EC50 [1] | melting point | further results
1 | O=S1(=O)c2ccccc2CN1c1cc(F)cc(Oc2ccccn2)c1 [Compound 6] | – | – | hGPR40 activity ([2]; at 100 uM, Figure 1, literature value): inactive; EC50 [3]: 123 nM
2 | Cc1ccc(-n2nc(C)c3cnc(-c4ccc([C@H]5C[C@@H]5C(=O)O)cc4)cc32)nc1 [Compound 4] | – | – | EC50 ([2]; Figure 1, literature values): > 100000 nM; EC50 [3]: 740 nM
3 | COc1ccc2c(c1)CCCN2C(=O)COc1ccc(C(C)CC(=O)O)cc1 (stereo not drawn) [Compound 11c, 3-(4-(2-(6-Methoxy-3,4-dihydroquinolin-1(2H)-yl)-2-oxoethoxy)phenyl)butanoic acid] | 99.6 nM | 141 to 142 °C | –
4 | CC(CC(=O)O)c1ccc(OCC(=O)N2CCCc3ccccc32)cc1 (stereo not drawn) [Compound 11a, 3-(4-(2-(3,4-Dihydroquinolin-1(2H)-yl)-2-oxoethoxy)phenyl)butanoic acid] | 113 nM | 117 to 118 °C | –
5 | Cc1cc(OCC(=O)N2CCCc3ccccc32)ccc1OCC(=O)O [Compound 11e, 2-(4-(2-(3,4-Dihydroquinolin-1(2H)-yl)-2-oxoethoxy)-2-methylphenoxy)acetic acid] | 255 nM | 138 to 139 °C | –
6 | CO[C@H]1C[C@H](Oc2cc(F)c(F)c(-c3c(F)cc(OCCCC(=O)O)cc3F)c2)C1 [Compound 5] | – | – | EC50 ([2]; Figure 1, literature values): > 100000 nM; EC50 [3]: 93 nM
7 | Cc1ccc2c(c1)CCCN2C(=O)COc1ccc(C(C)CC(=O)O)cc1 (stereo not drawn) [Compound 11b, 3-(4-(2-(6-Methyl-3,4-dihydroquinolin-1(2H)-yl)-2-oxoethoxy)phenyl)butanoic acid] | 71.2 nM | 115 to 116 °C | Tmax [5]: 0.5 h; AUC [5]: 9050 ± 435 ng·h/mL; Cmax [5]: 2530 ± 115 ng/mL; half-life [5]: 1.78 ± 0.42 h; anti-diabetic effects (blood glucose during oGTT) [6]: equivalent to TUG-891; insulin levels at 30 min after oral administration of glucose [6]: significantly increased insulin levels; anti-hyperglycemic effects compared with TUG-891 ([7]; 30 mg/kg, at 30 min after the oral glucose challenge): better than TUG-891; hypoglycemia ([7]; dose of 100 mg/kg by gavage): no hypoglycemia was observed; blood glucose during oGTT ([7]; gavage 20 mg/kg 30 min before oral glucose 3.0 g/kg): significantly reduced blood glucose; blood glucose levels during oGTT ([7]; gavage 10, 20, 30 and 100 mg/kg 30 min before oral glucose 3.0 g/kg): lowered the blood glucose levels in a dose-dependent manner; Selectivity [4]: 1159; EC50 [4]: 82500 nM
8 | O=C(O)CCc1cc(F)c(OCc2c(-c3ccc(Cl)cc3F)nsc2C(F)(F)F)c(F)c1 [Compound 3] | – | – | EC50 ([2]; Figure 1, literature value): > 5000 nM; EC50 [3]: 42 nM
9 | CC(CC(=O)O)c1ccc(OCC(=O)N2CCCc3cc(F)ccc32)cc1 (stereo not drawn) [Compound 11d, 3-(4-(2-(6-Fluoro-3,4-dihydroquinolin-1(2H)-yl)-2-oxoethoxy)phenyl)butanoic acid] | 187 nM | 124 to 130 °C | –

Now from value to molecule, other results behind:

Row | EC50 [1] | melting point | SMILES | further results
10 | 110 nM | 101 to 102 °C | Cc1ccc(-c2ccc(F)cc2COc2ccc(CCC(=O)O)c(F)c2)cc1 [Compound 4f, 3-(2-Fluoro-4-((4-fluoro-4′-methyl-[1,1′-biphenyl]-2-yl)methoxy)phenyl)propanoic acid] | –
11 | 72.7 nM | 115 to 116 °C | Cc1ccc(-c2ccc(F)cc2COc2ccc(OCC(=O)O)c(C)c2)cc1 [Compound 6f, 2-(4-((4-Fluoro-4′-methyl-[1,1′-biphenyl]-2-yl)methoxy)-2-methylphenoxy)acetic acid] | Selectivity [4]: 810; EC50 [4]: 58900 nM
12 | 146 nM | 103 to 104 °C | Cc1ccc(-c2ccc(F)cc2COc2ccc(CC(C)C(=O)O)cc2)cc1 (stereo not drawn) [Compound 1f, 3-(4-((4-Fluoro-4′-methyl-[1,1′-biphenyl]-2-yl)methoxy)phenyl)-2-methylpropanoic acid] | –
13 | 106 nM | 109 to 110 °C | Cc1ccc(-c2ccc(F)cc2COc2ccc(OCC(=O)O)c(F)c2)cc1 [Compound 7f, 2-(2-Fluoro-4-((4-fluoro-4′-methyl-[1,1′-biphenyl]-2-yl)methoxy)phenoxy)acetic acid] | –
14 | 204 nM | 152 to 153 °C | Cc1cc(OCC(=O)N2CCCc3cc(F)ccc32)ccc1OCC(=O)O [Compound 11f, 2-(4-(2-(6-Fluoro-3,4-dihydroquinolin-1(2H)-yl)-2-oxoethoxy)-2-methylphenoxy)acetic acid] | –
15 | 103 nM | 119 to 120 °C | Cc1ccc(-c2ccc(F)cc2COc2ccc(OCC(=O)O)cc2)cc1 [Compound 5f, 2-(4-((4-Fluoro-4′-methyl-[1,1′-biphenyl]-2-yl)methoxy)phenoxy)acetic acid] | –
16 | 90.2 nM | 116 to 117 °C | Cc1ccc(-c2ccc(F)cc2COc2ccc(CCC(=O)O)c(C)c2)cc1 [Compound 3f, 3-(4-((4-Fluoro-4′-methyl-[1,1′-biphenyl]-2-yl)methoxy)-2-methylphenyl)propanoic acid] | –
17 | 83.4 nM | 147 to 148 °C | Cc1ccc2c(c1)CCCN2C(=O)COc1ccc(OCC(=O)O)c(C)c1 [Compound 11g, 2-(2-Methyl-4-(2-(6-methyl-3,4-dihydroquinolin-1(2H)-yl)-2-oxoethoxy)phenoxy)acetic acid] | Tmax [5]: 0.5 h; AUC [5]: 6710 ± 467 ng·h/mL; Cmax [5]: 1850 ± 102 ng/mL; half-life [5]: 1.52 ± 0.37 h; Selectivity [4]: 1036; EC50 [4]: 86400 nM
18 | 52.8 nM | 100 to 101 °C | Cc1ccc(-c2ccc(F)cc2COc2ccc(C(C)CC(=O)O)cc2)cc1 (stereo not drawn) [Compound 2f, 3-(4-((4-Fluoro-4′-methyl-[1,1′-biphenyl]-2-yl)methoxy)phenyl)butanoic acid] | Selectivity [4]: 1373; EC50 [4]: 72500 nM
19 | 146 nM | 141 to 142 °C | COc1ccc2c(c1)CCCN2C(=O)COc1ccc(OCC(=O)O)c(C)c1 [Compound 11h, 2-(4-(2-(6-Methoxy-3,4-dihydroquinolin-1(2H)-yl)-2-oxoethoxy)-2-methylphenoxy)acetic acid] | –
